{"source": "patent US10829509B2", "about": "“Pure heptasulfated disaccharides having improved oral bioavailability” (OPKO Pharmaceuticals, LLC., priority 2016, dated 2020)", "key": {"[1]": {"test_system": "allergic sheep challenged with Ascaris suum antigen", "assay": "Antigen-induced early and late airway responses (EAR, LAR), pulmonary airflow resistance RL, in allergic sheep", "assay_type": "in vivo", "method": "(§1) Pulmonary airflow resistance was measured by taking allergic sheep previously verified as dual bronchoconstrictor responders to Ascaris suum antigen. The sheep were intubated with a cuffed nasotracheal tube and pulmonary airflow resistance (RL) was measured by the esophageal balloon catheter technique. Airway responsiveness was determined by first securing cumulative dose response curves to inhaled carbachol (a constrictor agonist) by measuring RL before and after inhalation of buffered saline and after each administration of 10 breaths of increasing concentrations of carbachol (0.25, 0.5, 1.0, 2.0 and 4.0% wt/vol solution). Airway responsiveness was measured by determining the cumulative provocation dose (PD400) of carbachol (in breath units) that increased RL to 400% above baseline. One breath unit was defined as one breath of 1% carbachol solution.\nTo illustrate the effectiveness of the formulations according to the invention to treat and alleviate allergen related diseases and conditions, including but not limited to the specific diseases and conditions recited herein, sheep were assessed in multiple experiments which compared various formulations containing no active ingredient to animals which were provided formulations comprising a compound of formula I (SSS-02). To measure pulmonary airflow resistance, the sheep were intubated with a cuffed nasotracheal tube and pulmonary airflow resistance (RL) was measured by the esophageal balloon catheter technique. These methods are accepted and well known methods found in the literature.\n(§2) For airway studies, each animal's baseline airway responsiveness (PD400) was determined and then, on different experimental days, the test sheep underwent airway challenge with Ascaris suum antigen. RL was measured to establish baseline, then measured again immediately after antigen challenge and hourly for an eight hour period and then a post challenge PD400 was measured 24 hours after antigen challenge. In each of the Figures presented herein, FIGS. 1A, 2A, 3A etc. present day two data measured on an hourly basis for the eight hour period and contain control data (closed circles) and drug treatment data (open circles or triangles (closed or open)). The drug treatment experiments were conducted on the same animals used in the control studies but after a period of several weeks following the day 3 PD400 measurements. FIGS. 1B, 2B, 3B etc. contain the day one baseline PD400 data and day three PD400 data following antigen challenge in control or drug treated animals.\n(§3) Data were expressed or may be expressed as (a) mean+/−SE % change of RL and (b) PD400 in breath units. Data were also expressed as (c) % protection of Early Airway Response (EAR, for 0-4 hours) and Late Airway Response (LAR, for 4-8 hours), as estimated by area under the curve for EAR and LAR respectively. And (d) AHR %"}, "[2]": {"test_system": "allergic sheep challenged with Ascaris suum antigen", "assay": "Post-antigen airway hyperresponsiveness (AHR), PD400 of inhaled carbachol, in allergic sheep", "assay_type": "in vivo", "method": "as §1\nTo assess airway responsiveness, cumulative dose response curves to inhaled carbachol were performed by measuring RL before and after inhalation of buffered saline and after each administration of 10 breaths of increasing concentrations of carbachol (0.25, 0.5, 1.0, 2.0, and 4.0% wt/vol solution). Airway responsiveness was measured by determining the cumulative provocation dose (PD400) of carbachol (in breath units) that increased RL to 400% above baseline. One breath unit was defined as one breath of 1% carbachol solution.\nas §2, §3\nThus, the numbers in the Figures as presented were obtained by the formula: Baseline PD400-drugantigenPD400 was x-y;Baseline PD400-ControlantigenPD400 was x-z. x-y/x-z×100=n. 100−n=X % protection in AHR."}, "[3]": {"details": "0.5 mg/kg QD x 4 days oral versus i.v., sheep, listed as 2,5-anhydro-3-O-(α-L-idopyranosyl)-D-mannitol hepta-O-sulfate sodium salt"}, "[4]": {"details": "i.v. 0.5 mg/kg QD for 4 days, last dose 90 min before antigen, n=5"}, "[5]": {"details": "inhaled multiple dose 10 mg x 3, n=6"}, "[6]": {"details": "inhaled multiple dose 10 mg x 3, n=6, sodium salt"}, "[7]": {"details": "inhaled single dose 10 mg, 30 min before antigen, n=5"}, "[8]": {"details": "oral 0.5 mg/kg BID x 7 doses, last dose 90 min before antigen, n=5"}, "[9]": {"details": "oral 0.5 mg/kg x 3 doses, one every 12 h, antigen 90 min after last dose, n=8"}, "[10]": {"details": "oral 1 mg/kg x 3 doses, one every 12 h, antigen 90 min after last dose, n=8"}, "[11]": {"details": "oral liquid 0.5 mg/kg QD for 4 days, last dose 90 min before antigen, n=5"}, "[12]": {"details": "single oral dose 0.5 mg/kg, 90 min before antigen, n=5"}, "[13]": {"details": "single oral dose 1 mg/kg, 90 min before antigen, n=5"}}, "note": "“Also recorded” adds a separate entry of the source.", "data": [{"smiles": "O=S(=O)([O-])OC[C@@H]1O[C@@H](O[C@H]2[C@H](OS(=O)(=O)[O-])[C@@H](COS(=O)(=O)[O-])O[C@@H]2COS(=O)(=O)[O-])[C@H](OS(=O)(=O)[O-])[C@@H](OS(=O)(=O)[O-])[C@@H]1OS(=O)(=O)[O-].[Na+].[Na+].[Na+].[Na+].[Na+].[Na+].[Na+]", "note": "[SSS-056-01, 2,5-anhydro-3-O-(α-L-idopyranose)-D-mannitol-hepta-O-sulfate-hepta sodium salt]", "values": [{"measurement": "inhibition of EAR", "setting": "[1]; [4]", "result": 77, "unit": "%"}, {"measurement": "inhibition of LAR", "setting": "[1]; [4]", "result": 92, "unit": "%"}, {"measurement": "inhibition of LAR", "setting": "[1]; [5]", "result": 75, "unit": "%"}, {"measurement": "effect on EAR", "setting": "[1]; [6]", "result": "without an effect; also recorded: no significant cumulative effect"}, {"measurement": "effect on LAR (in words)", "setting": "[1]; [6]", "result": "did have an effect on LAR; also recorded: did inhibit LAR"}, {"measurement": "effect on EAR, LAR and AHR", "setting": "[1]; inhaled single dose 5 mg, 30 min before antigen, n=5", "result": "ineffective"}, {"measurement": "effect on EAR", "setting": "[1]; [7]", "result": "without an effect"}, {"measurement": "inhibition of LAR", "setting": "[1]; [7]", "result": 75, "unit": "%"}, {"measurement": "effect on EAR, LAR and AHR", "setting": "[1]; oral 0.25 mg/kg x 3 doses, one every 12 h, antigen 90 min after last dose, n=8", "result": "ineffective"}, {"measurement": "inhibition of EAR", "setting": "[1]; [8]", "result": 76, "unit": "%"}, {"measurement": "inhibition of LAR", "setting": "[1]; [8]", "result": 96, "unit": "%"}, {"measurement": "inhibition of EAR", "setting": "[1]; [9]", "result": 30, "unit": "%"}, {"measurement": "inhibition of LAR", "setting": "[1]; [9]", "result": 85, "unit": "%"}, {"measurement": "inhibition of EAR", "setting": "[1]; [10]", "result": 54, "unit": "%"}, {"measurement": "inhibition of LAR", "setting": "[1]; [10]", "result": 87, "unit": "%"}, {"measurement": "inhibition of EAR", "setting": "[1]; [11]", "result": 77, "unit": "%"}, {"measurement": "inhibition of LAR", "setting": "[1]; [11]", "result": 95, "unit": "%"}, {"measurement": "effect on EAR, LAR and AHR", "setting": "[1]; single oral dose 0.25 mg/kg, 90 min before antigen, n=5", "result": "ineffective"}, {"measurement": "effect on EAR", "setting": "[1]; [12]", "result": "without an effect"}, {"measurement": "inhibition of LAR", "setting": "[1]; [12]", "result": 71, "unit": "%"}, {"measurement": "effect on EAR", "setting": "[1]; [13]", "result": "without an effect"}, {"measurement": "inhibition of LAR", "setting": "[1]; [13]", "result": 77, "unit": "%"}, {"measurement": "inhibition of AHR", "setting": "[2]; i.v. 0.5 mg/kg QD for 4 days, PD400 24 h post-antigen, n=5", "result": 100, "unit": "%"}, {"measurement": "inhibition of AHR", "setting": "[2]; [5]", "result": 100, "unit": "%"}, {"measurement": "inhibition of AHR", "setting": "[2]; [7]", "result": 100, "unit": "%"}, {"measurement": "inhibition of AHR", "setting": "[2]; oral 0.5 mg/kg BID x 7 doses, n=5", "result": 100, "unit": "%"}, {"measurement": "inhibition of AHR", "setting": "[2]; oral 0.5 mg/kg x 3 doses, one every 12 h, n=8", "result": 100, "unit": "%"}, {"measurement": "inhibition of AHR", "setting": "[2]; oral 1 mg/kg x 3 doses, one every 12 h, n=8", "result": 100, "unit": "%"}, {"measurement": "inhibition of AHR", "setting": "[2]; oral liquid 0.5 mg/kg QD for 4 days, PD400 24 h post-antigen, n=5", "result": 100, "unit": "%"}, {"measurement": "inhibition of AHR", "setting": "[2]; [12]", "result": 100, "unit": "%"}, {"measurement": "inhibition of AHR", "setting": "[2]; [13]", "result": 100, "unit": "%"}, {"measurement": "bioavailability of oral dose versus intravenous dose", "setting": "[3]", "result": "comparable bioavailability"}]}]}
